Reference: patent publication US7875596B2, “Use of dermatan sulfates and/or desulfated heparins to treat or prevent heparinoid-induced autoimmune responses” (Celsus Biopharmaceuticals, Inc., priority 2004, dated 2011)

What was measured:
[1] = biological target: T1, purified α-thrombin in the presence of purified human HCII (Homo sapiens, UniProt P05546); assay: HCII/anti-IIa activity (plasma-free chromogenic anti-IIa assay with heparin cofactor II); type: biochemical
T1 construct: Performed in a plasma-free system with purified α-thrombin; purchased Enzyme Research Laboratories, South Bend Ind; (α-thrombin, Lot No. HT2450PRA)
T1 sequence (P05546 20-499): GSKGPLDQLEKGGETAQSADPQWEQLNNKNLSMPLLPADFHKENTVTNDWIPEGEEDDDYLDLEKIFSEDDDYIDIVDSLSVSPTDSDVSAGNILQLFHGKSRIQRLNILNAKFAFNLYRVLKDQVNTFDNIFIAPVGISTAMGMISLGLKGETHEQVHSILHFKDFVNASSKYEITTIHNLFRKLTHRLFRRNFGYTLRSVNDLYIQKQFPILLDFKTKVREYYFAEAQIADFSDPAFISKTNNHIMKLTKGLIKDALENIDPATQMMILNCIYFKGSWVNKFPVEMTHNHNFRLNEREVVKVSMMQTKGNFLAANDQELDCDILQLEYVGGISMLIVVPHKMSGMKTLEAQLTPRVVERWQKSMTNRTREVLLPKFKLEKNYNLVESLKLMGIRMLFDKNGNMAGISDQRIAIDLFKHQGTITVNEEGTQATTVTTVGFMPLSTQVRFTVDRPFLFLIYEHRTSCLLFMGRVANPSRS
Text: For the purposes of the present invention, the terms “heparin cofactor II (HCII)-dependent anti-IIa activity,” “heparin cofactor II activity” and “HCII activity” refer interchangeably to the thrombin inhibitory potency of a sulfated mucopolysaccharide measured in the presence of purified human heparin cofactor II.
The chemical, physical and physiological properties of the dermatan sulfates, including the LMWDS embodiments, of this invention can be determined by the following methods: • a. Molecular weight. By gel permeation chromatography according to the method of and as defined by van Dedem et al., “Determinations of the Molecular Mass of Low Molecular Mass (LMM) Heparin,” Pharmeuropa (1991) 3:202-225 (herein incorporated by reference), using the 1st International Reference Standard for Low Molecular Weight Heparin (90/868) as the calibrant. Average molecular weights. […] The % sulfur is determined from the weight of barium sulfate. • c. […] Measurements can be performed manually or on an ACL 300 Plus Analyzer (Instrumentation Laboratory, Lexington Mass.) and anti-factor IIa activity calculated based on the USP Heparin Reference Standard K-5 (U.S. Pharmacopeial Convention, Inc., Rockville Md.). • e. […] Quantified by the PF4 ENHANCED® ELISA kit (Cat. No. X-HAT 45) according to the manufacturer's instructions (GTI, Waukesha Wis.).

[2] = Heparin assay (USP heparin potency)
Text: The chemical, physical and physiological properties of the dermatan sulfates, including the LMWDS embodiments, of this invention can be determined by the following methods: • a. Molecular weight. By gel permeation chromatography according to the method of and as defined by van Dedem et al., “Determinations of the Molecular Mass of Low Molecular Mass (LMM) Heparin,” Pharmeuropa (1991) 3:202-225 (herein incorporated by reference), using the 1st International Reference Standard for Low Molecular Weight Heparin (90/868) as the calibrant. Average molecular weights. By viscometric methods as described by Liberti et al., “Physiochemical Studies of Fractionated Bovine Heparin II: Viscosity as a Function of Ionic Strength,” Arch. Biochem. Biophys. […] The % sulfur is determined from the weight of barium sulfate. • c. […] Measurements can be performed manually or on an ACL 300 Plus Analyzer (Instrumentation Laboratory, Lexington Mass.) and anti-factor IIa activity calculated based on the USP Heparin Reference Standard K-5 (U.S. Pharmacopeial Convention, Inc., Rockville Md.). • e. […] Quantified by the PF4 ENHANCED® ELISA kit (Cat. No. X-HAT 45) according to the manufacturer's instructions (GTI, Waukesha Wis.).
The chemical, physical and physiological properties of the O-desulfated heparins of this invention can be determined by the following methods: • a. […]

Substance: dermatan sulfate
- HCII/anti-IIa activity [1]: less than 15 u/mg
- heparin assay [2]: < 8 u/mg
